Source: ChEMBL document CHEMBL1143110, “Targeting ACE and ECE with dual acting inhibitors” (Bioorg Med Chem Lett, 2008)
pIC50: −log10 of the molar value.

Experiments:
[1] = molecular target: Angiotensin-converting enzyme (Homo sapiens, UniProt P12821); assay: Inhibition of ACE
[2] = Inhibition of ECE
[3] = molecular target: Neprilysin (Homo sapiens, UniProt P08473); assay: Inhibition of NEP

Row | SMILES | pIC50 [1] | pIC50 [2] | pIC50 [3]
1 | O=C(O)[C@H](Cc1ccc2ccccc2c1)NC(=O)N(CCN1C(=O)c2cccc3cccc(c23)C1=O)C[C@H](O)C(=O)O | 5.70 | 6.22 | 6.19
2 | O=C(O)[C@H](Cc1ccc2ccccc2c1)NC(=O)N(Cc1ccc2c(c1)Cc1ccccc1-2)C[C@H](O)C(=O)O | 6.82 |  | 4.72
3 | CCC(CC)CN(C[C@H](O)C(=O)O)C(=O)N[C@@H](Cc1ccc2ccccc2c1)C(=O)O |  |  | 7.44
4 | CC(C)(C)CN(C[C@H](O)C(=O)O)C(=O)N[C@@H](Cc1ccc2ccccc2c1)C(=O)O | 6.72 |  | 8.30
5 | CC(C)CN(CCP(=O)(O)O)C(=O)N[C@@H](Cc1ccc2ccccc2c1)C(=O)O |  |  | 8.22
6 | CC(C)CN(C[C@H](O)C(=O)O)C(=O)N[C@@H](Cc1ccc2ccccc2c1)C(=O)O | 7.28 | 5.60 | 8.40

Next, values leading:

Row | pIC50 [1] | pIC50 [2] | pIC50 [3] | SMILES
7 | 6.99 | 4.78 | 8.10 | CC(C)CN(C[C@H](O)C(=O)O)C(=O)N[C@@H](Cc1c[nH]c2ccccc12)C(=O)O
8 | 7.22 |  | 8.22 | CC(C)CN(C[C@H](O)C(=O)O)C(=O)N[C@@H](Cc1ccc(O)cc1)C(=O)O
9 | 7.41 |  |  | O=C1c2ccccc2-c2ccc(CN(C[C@H](O)C(=O)O)C(=O)N[C@@H](Cc3ccc4ccccc4c3)C(=O)O)cc21
10 | 6.96 |  | 8.05 | CC(C)CN(C[C@H](O)C(=O)O)C(=O)N[C@@H](Cc1cccc2ccccc12)C(=O)O
11 | 7.40 |  |  | O=C1c2ccccc2C(=O)c2cc(CN(C[C@H](O)C(=O)O)C(=O)N[C@@H](Cc3ccc4ccccc4c3)C(=O)O)ccc21
12 | 7.46 | 5.46 | 8.00 | CC(C)CN(C[C@H](O)C(=O)O)C(=O)N[C@@H](Cc1ccc(-c2ccccc2)cc1)C(=O)O
13 | 7.54 |  | 8.70 | CC(C)CN(CP(=O)(O)O)C(=O)N[C@@H](Cc1ccc2ccccc2c1)C(=O)O
14 | 7.64 |  | 7.72 | CC(C)CN(C[C@H](O)C(=O)O)C(=O)N[C@@H](Cc1ccc(O)c(O)c1)C(=O)O
